Data as given in US10696693B2, “Fused imidazole derivatives as TGF-beta inhibitors” (Rigel Pharmaceuticals, Inc., priority 2014, dated 2020).
Where two headings read alike, the source gives them in different places.

How the values were obtained:
GDF8 = assay: AlphaScreen SureFire p-SMAD3 (Ser423/425) assay, GDF8-stimulated cells; format: cell-based; conditions: Mus musculus
In short: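 Lysate (5 μL) went into 384-well shallow plates with 5 μL of Reaction Buffer, Activation Buffer and AlphaScreen Acceptor bead mix. Plates were sealed, kept dark and shaken for 2 hours at room temperature. Donor beads in dilution buffer (2 μL) were added for another 1½ hours, and p-SMAD3 signal was read on a Synergy-4 or Enspire reader.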

TGF-β = assay: AlphaScreen SureFire p-SMAD3 (Ser423/425) assay, TGF-β-stimulated cells; format: cell-based; conditions: Mus musculus
In short: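 The p-SMAD-3 (Ser423/425) SureFire assay measured phosphorylation of endogenous SMAD-3 in cell lysates. Cells were plated overnight in collagen-coated plates, exposed to three-fold serially diluted compounds for about 10 minutes, then stimulated with TGFβ. Lysates (5 μL) received acceptor bead mix for 2 hours, then donor beads for 1½ hours before AlphaScreen reading.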

[1] = MPC-11, p-SMAD3 (Ser423/425) AlphaScreen in cell lysate, MPC11, GDF8 stimulation, read-out: GDF8: inhibition of GDF8 signaling, GDF pSMAD (MPC11)
[2] = p-SMAD3 (Ser423/425) AlphaScreen in cell lysate, MPC-11, TGF-β stimulation, read-out: TGF-β: inhibition of TGF-β signaling, TGF-β pSMAD (MPC-11)
[3] = MPC-11, read-out: GDF8: inhibition of GDF8 signaling, GDF pSMAD (MPC11), p-SMAD3 (Ser423/425) AlphaScreen in cell lysate, GDF8 stimulation
[4] = MPC-11, read-out: TGF-β: inhibition of TGF-β signaling, TGF-β pSMAD (MPC-11), p-SMAD3 (Ser423/425) AlphaScreen in cell lysate, TGF-β stimulation

Compound | IC50 (GDF8; [1]) | IC50 (TGF-β; [2]) | IC50 (GDF8; [3]) | IC50 (TGF-β; [4])
Fc1cc(-c2nc3n(c2-c2ccc4nccn4c2)CCC3)cc(F)c1F [Compound 13] | 100 to 1000 nM | > 1000 nM |  | 
Clc1ccc(Cl)c(-c2nc3n(c2-c2ccc4ncccc4c2)CCC3)c1 [Compound 343, 6-(2-(2,5-dichlorophenyl)-6,7-dihydro-5H-pyrrolo[1,2-a]imidazol-3-yl)quinoline] |  |  | 100 to 1000 nM | 100 to 1000 nM
COc1cccc(-c2nc3n(c2-c2ccc4ncsc4c2)CCC3)c1 [Compound 187, 6-(2-(3-methoxyphenyl)-6,7-dihydro-5H-pyrrolo[1,2-a]imidazol-3-yl)benzo[d]thiazole] |  |  | 50 to 100 nM | 100 to 1000 nM
Cc1cc(F)c(Cl)cc1-c1nc2n(c1-c1ccc3nccnc3c1)CCC2 [Compound 298, 6-(2-(5-chloro-4-fluoro-2-methylphenyl)-6,7-dihydro-5H-pyrrolo[1,2-a]imidazol-3-yl)quinoxaline] |  |  | 100 to 1000 nM | > 1000 nM
Cc1c(F)ccc(-c2nc3n(c2-c2ccc4ncnn4c2)CCC3)c1C [Compound 73, 6-(2-(4-fluoro-2,3-dimethylphenyl)-6,7-dihydro-5H-pyrrolo[1,2-a]imidazol-3-yl)-[1,2,4]triazolo[1,5-a]pyridine] |  |  | 100 to 1000 nM | > 1000 nM
Clc1ccc(Cl)c(-c2nc3n(c2-c2ccc4ncsc4c2)CCC3)c1 [Compound 349, 6-(2-(2,5-dichlorophenyl)-6,7-dihydro-5H-pyrrolo[1,2-a]imidazol-3-yl)benzo[d]thiazole] |  |  | < 50 nM | 50 to 100 nM
Fc1ccc(-c2nc3occn3c2-c2ccc3[nH]ncc3c2)c(F)c1 [Compound 154, 6-(2,4-difluorophenyl)-5-(1H-indazol-5-yl)imidazo[2,1-b]oxazole] | < 50 nM | 100 to 1000 nM |  | 
Fc1cc(F)c(F)c(-c2nc3n(c2-c2ccc4[nH]ncc4c2)CCC3)c1 [Compound 236, 5-(2-(2,3,5-trifluorophenyl)-6,7-dihydro-5H-pyrrolo[1,2-a]imidazol-3-yl)-1H-indazole] |  |  | 100 to 1000 nM | > 1000 nM
Cc1ccc(Cl)cc1-c1nc2n(c1-c1ccc3ncsc3c1)CCC2 [Compound 350, 6-(2-(5-chloro-2-methylphenyl)-6,7-dihydro-5H-pyrrolo[1,2-a]imidazol-3-yl)benzo[d]thiazole] |  |  | 50 to 100 nM | 100 to 1000 nM
COCCOc1cnc2ccc(-c3c(-c4ccc(F)c(Cl)c4)nc4n3CCC4)cc2n1 [Compound 355, 7-(2-(3-chloro-4-fluorophenyl)-6,7-dihydro-5H-pyrrolo[1,2-a]imidazol-3-yl)-2-(2-methoxyethoxy)quinoxaline] |  |  | 100 to 1000 nM | 100 to 1000 nM
Fc1ccc(-c2nc3n(c2-c2ccc4ncsc4c2)CCC3)c(F)c1F [Compound 226, 6-(2-(2,3,4-trifluorophenyl)-6,7-dihydro-5H-pyrrolo[1,2-a]imidazol-3-yl)benzo[d]thiazole] |  |  | 100 to 1000 nM | 100 to 1000 nM
O=C(O)C1CCC2(CC1)Cc1nc(-c3ccc(F)cc3)c(-c3ccc4ncnn4c3)n1C2 (centres unmarked) [Compound 76, 3′-([1,2,4]triazolo[1,5-a]pyridin-6-yl)-2′-(4-fluorophenyl)-5′H,7′H-spiro[cyclohexane-1,6′-pyrrolo[1,2-a]imidazole]-4-carboxylic acid] |  |  | > 1000 nM | > 1000 nM
Fc1ccc(-c2nc3n(c2-c2ccc4ncsc4c2)CCC3)c(F)c1 [Compound 203, 6-(2-(2,4-difluorophenyl)-6,7-dihydro-5H-pyrrolo[1,2-a]imidazol-3-yl)benzo[d]thiazole] | < 50 nM | 100 to 1000 nM |  | 
COc1c(C)cc(-c2nc3n(c2-c2ccc4ncccc4c2)CCC3)cc1C [Compound 259, 6-(2-(4-methoxy-3,5-dimethylphenyl)-6,7-dihydro-5H-pyrrolo[1,2-a]imidazol-3-yl)quinoline] | > 1000 nM | > 1000 nM |  | 
Cc1c(F)ccc(-c2nc3n(c2-c2ccc4nccnc4c2)CCC3)c1Cl [Compound 314, 6-(2-(2-chloro-4-fluoro-3-methylphenyl)-6,7-dihydro-5H-pyrrolo[1,2-a]imidazol-3-yl)quinoxaline] | > 1000 nM | > 1000 nM |  | 

Now from value to compound, other results behind:

IC50 (GDF8; [1]) | IC50 (TGF-β; [2]) | Compound | IC50 (GDF8; [3]) | IC50 (TGF-β; [4])
100 to 1000 nM | > 1000 nM | Fc1cc(-c2nc3n(c2-c2ccc4ncnn4c2)CCC3)cc(F)c1F [Compound 16, 6-(2-(3,4,5-trifluorophenyl)-6,7-dihydro-5H-pyrrolo[1,2-a]imidazol-3-yl)-[1,2,4]triazolo[1,5-a]pyridine] |  | 
> 1000 nM | > 1000 nM | Cc1cc(F)c(-c2nc3n(c2-c2ccc4ncsc4c2)CCC3)cc1F [Compound 285, 6-(2-(2,5-difluoro-4-methylphenyl)-6,7-dihydro-5H-pyrrolo[1,2-a]imidazol-3-yl)benzo[d]thiazole] |  | 
> 1000 nM | > 1000 nM | Cc1cc(-c2nc3n(c2-c2ccc4nccnc4c2)CCC3)cc(C)c1F [Compound 278, 6-(2-(4-fluoro-3,5-dimethylphenyl)-6,7-dihydro-5H-pyrrolo[1,2-a]imidazol-3-yl)quinoxaline] |  | 
50 to 100 nM | 100 to 1000 nM | Cc1ccc(F)c(-c2nc3n(c2-c2ccc4ncccc4c2)CCC3)c1 [Compound 356, 6-(2-(2-fluoro-5-methylphenyl)-6,7-dihydro-5H-pyrrolo[1,2-a]imidazol-3-yl)quinoline] |  | 
100 to 1000 nM | > 1000 nM | Fc1ccccc1-c1nc2n(c1-c1cc3cnccc3s1)CCC2 [Compound 100, 2-(2-(2-fluorophenyl)-6,7-dihydro-5H-pyrrolo[1,2-a]imidazol-3-yl)thieno[3,2-c]pyridine] |  | 
50 to 100 nM | 100 to 1000 nM | Fc1ccc(-c2nc3n(c2-c2ccc4nccn4c2)CCC3)cc1Cl [Compound 37] |  | 
50 to 100 nM | 100 to 1000 nM | FC(F)(F)c1cccc(-c2nc3n(c2-c2ccc4nccnc4c2)CCC3)c1 [Compound 184, 6-(2-(3-(trifluoromethyl)phenyl)-6,7-dihydro-5H-pyrrolo[1,2-a]imidazol-3-yl)quinoxaline] |  | 
> 1000 nM | > 1000 nM | Fc1cc(-c2nc3n(c2-c2ccc4ncccc4c2)CCC3)c(F)cc1Cl [Compound 242, 6-(2-(4-chloro-2,5-difluorophenyl)-6,7-dihydro-5H-pyrrolo[1,2-a]imidazol-3-yl)quinoline] |  | 
> 1000 nM | > 1000 nM | Fc1cc(F)c(-c2nc3n(c2-c2ccc4nnc(C(F)(F)F)n4c2)CCC3)cc1F [Compound 34, 3-(trifluoromethyl)-6-(2-(2,4,5-trifluorophenyl)-6,7-dihydro-5H-pyrrolo[1,2-c]imidazol-3-yl)-[1,2,4]triazolo[4,3-c]pyridine] |  | 
> 1000 nM | > 1000 nM | Fc1cccc(F)c1-c1nc2n(c1-c1ccc3ncccc3c1)CCC2 [Compound 216, 6-(2-(2,6-difluorophenyl)-6,7-dihydro-5H-pyrrolo[1,2-a]imidazol-3-yl)quinoline] |  | 
< 50 nM | < 50 nM | Cc1cccc(-c2nc3occn3c2-c2ccc3cn[nH]c3c2)c1 [Compound 140, 6-(m-tolyl)-5-(1H-indazol-6-yl)imidazo[2,1-b]oxazole] |  | 
50 to 100 nM | 100 to 1000 nM | Fc1ccc(-c2nc3occn3c2-c2ccc3nccn3c2)c(F)c1F [Compound 163, 5-(imidazo[1,2-a]pyridin-6-yl)-6-(2,3,4-trifluorophenyl)imidazo[2,1-b]oxazole] |  | 
50 to 100 nM | 100 to 1000 nM | Fc1ccc(-c2nc3n(c2-c2ccc4cn[nH]c4c2)CCC3)c(F)c1 [Compound 202, 6-(2-(2,4-difluorophenyl)-6,7-dihydro-5H-pyrrolo[1,2-a]imidazol-3-yl)-1H-indazole] |  | 
100 to 1000 nM | > 1000 nM | Fc1ccccc1-c1nc2n(c1-c1ccc3ncccc3c1)CCC2 [Compound 210, 6-(2-(2-fluorophenyl)-6,7-dihydro-5H-pyrrolo[1,2-a]imidazol-3-yl)quinoline] |  | 
> 1000 nM | > 1000 nM | Cc1cc(-c2nc3n(c2-c2ccc4ncsc4c2)CCC3)cc(C)c1Cl [Compound 244, 6-(2-(4-chloro-3,5-dimethylphenyl)-6,7-dihydro-5H-pyrrolo[1,2-a]imidazol-3-yl)benzo[d]thiazole] |  | 
100 to 1000 nM | 100 to 1000 nM | Cc1ccc(Cl)cc1-c1nc2n(c1-c1ccc3ncccc3c1)CCC2 [Compound 340, 6-(2-(5-chloro-2-methylpheny)-6,7-dihydro-5H-pyrrolo[1,2-a]imidazol-3-yl)quinoline] |  | 
100 to 1000 nM | 100 to 1000 nM | Cc1cc(F)ccc1-c1nc2n(c1-c1ccc3ncsc3c1)CCC2 [Compound 293, 6-(2-(4-fluoro-2-methylphenyl)-6,7-dihydro-5H-pyrrolo[1,2-a]imidazol-3-yl)benzo[d]thiazole] |  | 
> 1000 nM | > 1000 nM | Fc1cccc(-c2nc3n(c2-c2ccc4c(c2)OCO4)CCC3)c1 [Compound 223, 3-(benzo[d][1,3]dioxol-5-yl)-2-(3-fluorophenyl)-6,7-dihydro-5H-pyrrolo[1,2-a]imidazole] |  | 
100 to 1000 nM | 100 to 1000 nM | Fc1ccc(-c2nc3n(c2-c2ccc4ncccc4c2)CCC3)c(F)c1 [Compound 211, 6-(2-(2,4-difluorophenyl)-6,7-dihydro-5H-pyrrolo[1,2-a]imidazol-3-yl)quinoline] |  | 
